One block for each sequence: values may come before it.
What was measured:
Assay type in all cases: binding
[1] = test system: monoclonal anti-hcTnT antibody M7; test: ITEM-FOUR nano-ESI mass spectrometry: in-solution immune complex formation and gas-phase dissociation of M7 antibody–epitope peptide complexes; conditions: for in-solution immune complex formation with M7 (binding in words): nano-ESI-MS, 200 mM ammonium acetate pH 6.7, peptide:antibody 2.1:1 (epitope series) or 13:1 (negative controls)
Protocol: (§1) Immune complex-containing solutions of a wild-type epitope peptide and its corresponding antibody, e.g., P11 and M7, were prepared by mixing the two components in 200 mM ammonium acetate buffer (pH 6.7), ensuring a molar excess of the epitope peptide over the antibody to achieve binding saturation. After an incubation period of one hour, the entire mixture (~3 µL) was loaded into a nano-ESI emitter and electrosprayed. The mass spectrometer was configured to transmit only ion signals with m/z values above 3850, effectively eliminating signals from the unbound peptide (Figure 1A).
(§2) Antibody–peptide mixture solutions were prepared for ITEM FOUR experiments by mixing 5 µL of one antibody working solution with one assigned peptide working solution to generate antibody to peptide molar ratios of 1:2.1 for all solutions that contained the M7 antibody. For mixture solutions containing the M11.7 or the anti-TNFα antibody, 1:13 molar ratios were prepared. Antibodies were incubated together with peptides for at least one hour at room temperature prior to analysis.
(§3) Data acquisition for ITEM-FOUR experiments was performed as described in [18] with the Synapt G2S mass spectrometer (Waters MS-Technologies, Wilmslow, UK) and with the following instrumental settings: source temperature, 40 °C; capillary voltage, 1.0–1.3 kV; sample cone voltage, 130 V; source offset voltage, 130 V; trap gas flow (argon), 8.0 mL/min; helium gas: 20 bar. All mass spectra were acquired in positive-ion mode applying a mass window of m/z 200–8000. The quadrupole analyzer was used to block transmission of lower-molecular-mass ions: M1 = 5000 with dwell time of 25% and ramp time of 25%; M2 = 5000 with dwell time of 25% and ramp time of 25%; M3 = 5000. ΔCV in the TRAP collision cell was increased stepwise as follows: 0, 2, 6, 10, 14, 18, 22, 26, 30, 34, 40, 46, 52 and 58 V. The ion mobility separation mode was not used. All acquired scans during a given collision cell voltage difference setting were integrated to obtain an averaged spectrum from which ion intensities were extracted for ITEM-FOUR calculations. Data were acquired and processed with MassLynx software version 4.1 (Waters MS-Technologies). For exact time stamps of all measurements, refer to Table S2 in the Supplement (see also the deposited raw data supplement in the PRIDE directory). All mass spectra for each ΔCV setting were smoothed using the Savitzky-Golay method. Spectra of antibody solutions and antibody–peptide mixture solutions were smoothed using 30 cycles with a 15-mass unit window at the high mass end and at the low mass end with 3 cycles and a 2-mass unit window. All measurements were recorded in duplicate. The mass spectrometric raw data have been deposited via the ProteomeXchange Consortium in the PRIDE partner repository with the dataset identifier PXD058812 [70].
(§4) The Origin Pro 2023b (64-bit, OriginLab Corporation, Northampton, MA, USA) software package with an automation script for processing multiple datasets was used to graphically plot the extracted intensities of the ion signals of all relevant molecular entities (the immune complex with two bound peptides, the immune complex with one bound peptide, free antibodies, and free peptides) against their corresponding charge state for each collision cell voltage difference (ΔCV). Subsequently, Gaussian curve fittings were performed separately for each molecular entity. […] Iterations were performed for R2 values to be at least 0.91. Apices of Gaussian curves provided the intensities and the average m/z values for each molecular species. Intensity values of individual molecular entities (educts and products) were summed and normalized. Normalized intensities of educts and products from duplicate measurements were averaged.
(§5) The number of atoms from rituximab was used because the amino acid sequences of neither the M7 nor the M11.7 antibody were disclosed. […]

[2] = test system: monoclonal anti-hcTnT antibody M11.7; test: ITEM-FOUR nano-ESI mass spectrometry: in-solution immune complex formation and gas-phase dissociation of M11.7 antibody–epitope peptide complexes; conditions: for in-solution immune complex formation with M11.7 (binding in words): nano-ESI-MS, 200 mM ammonium acetate pH 6.7
Protocol: as §1, §2, §3, §4, §5

[3] = test system: anti-TNFα antibody; test: Nano-ESI-MS negative control: epitope peptide mixed with an unrelated antibody; conditions: 200 mM ammonium acetate pH 6.7, peptide:antibody 13:1
Protocol: Negative controls were investigated to confirm specificity of in-solution complex formations. […] To further rule out non-specific interactions for epitope peptide P11 or epitope peptide P21, either of them was separately mixed with an unrelated anti-TNFα antibody (Figures S46 and S47).
The anti-TNFα antibody stock solution (2 µg/µL) was prepared from lyophilized antibody powder (article number: MAS: 23720, ThermoFisher Scientific) and 200 mM ammonium acetate (pH 6.7).
as §2
Data acquisition for ITEM-FOUR experiments was performed as described in [18] with the Synapt G2S mass spectrometer (Waters MS-Technologies, Wilmslow, UK) and with the following instrumental settings: source temperature, 40 °C; capillary voltage, 1.0–1.3 kV; sample cone voltage, 130 V; source offset voltage, 130 V; trap gas flow (argon), 8.0 mL/min; helium gas: 20 bar. […] All measurements were recorded in duplicate. […]

[4] = apparent gas-phase dissociation constant, dimensionless number, extrapolated to ambient temperature
[5] = class by difference of normalized product ion intensities over ΔCV
[6] = pseudo thermodynamic value of gas-phase complex dissociation, Ellingham diagram read at Tamb
[7] = pseudo thermodynamic value of gas-phase complex dissociation, extrapolated to Tamb

KD m0g# [Ø] [1, 4]: 0.59 Ø
in-solution immune complex formation with M11.7 (binding in words) ([2]; peptide:antibody 13:1): no immune complexes were detected
Sequence: LVSLKDRIERRRAER [Peptide P11]
dx (V) ([1]; Boltzmann curve parameter, peptide:antibody 2.1:1, averaged from two acquisitions): 6.69 V
Binding Type [1, 5]: orthodox (The differences in normalized product ion intensity values were always greater than 15 percentage points)
ΔCV50 (V) ([1]; collision cell voltage difference for 50% dissociation, Boltzmann fit, peptide:antibody 2.1:1, averaged from two acquisitions): 25.27 V
Final (%) ([1]; normalized product ion quantity at highest applied ΔCV, peptide:antibody 2.1:1, 200 mM ammonium acetate pH 6.7, averaged from two acquisitions): 84.36%
Initial (%) ([1]; normalized product ion quantity at lowest applied ΔCV, peptide:antibody 2.1:1, 200 mM ammonium acetate pH 6.7, at least 1 h RT, nano-ESI, ΔCV 0-58 V, averaged from two acquisitions): 56.43%
ΔGm0g# [1, 6]: 1.28 kJ/mol
Tamb ΔSm0g# [1, 7]: 38.96 kJ/mol
ΔHm0g# [1, 7]: 40.25 kJ/mol
Slope (%/V) ([1]; slope of Boltzmann curve, peptide:antibody 2.1:1, averaged from two acquisitions): 1.04 %/V
in-solution immune complex formation with anti-TNFα antibody [3]: No immune complex signals were observed

in-solution immune complex formation with M7 (binding in words) [1]: did not produce any immune complexes
in-solution immune complex formation with M11.7 (binding in words) ([2]; peptide:antibody 13:1): did not produce any immune complexes
Sequence: GPSIVHRKSFHHHHHH [His-tag peptide, unrelated His-tag peptide used as negative control, reference compound]

in-solution immune complex formation with M7 (binding in words) [1]: no immune complexes were detected
KD m0g# [Ø] [2, 4]: 0.92 Ø
Sequence: AEQQRIRNEREKERQ [Peptide P21]
dx (V) ([2]; Boltzmann curve parameter, peptide:antibody 13:1, averaged from two acquisitions): 5.77 V
Binding Type [2, 5]: orthodox (The differences in normalized product ion intensity values were always greater than 15 percentage points)
ΔCV50 (V) ([2]; collision cell voltage difference for 50% dissociation, Boltzmann fit, peptide:antibody 13:1, averaged from two acquisitions): 12.77 V
Final (%) ([2]; normalized product ion quantity at highest applied ΔCV, peptide:antibody 13:1, 200 mM ammonium acetate pH 6.7, averaged from two acquisitions): 96.29%
Initial (%) ([2]; normalized product ion quantity at lowest applied ΔCV, peptide:antibody 13:1, 200 mM ammonium acetate pH 6.7, at least 1 h RT, nano-ESI, ΔCV 0-58 V, averaged from two acquisitions): 56.91%
ΔGm0g# [2, 6]: 0.21 kJ/mol
Tamb ΔSm0g# [2, 7]: 72.32 kJ/mol
ΔHm0g# [2, 7]: 72.53 kJ/mol
Slope (%/V) ([2]; slope of Boltzmann curve, peptide:antibody 13:1, averaged from two acquisitions): 1.71 %/V
in-solution immune complex formation with anti-TNFα antibody [3]: No immune complex signals were observed

— article PMC12112476, “Mass Spectrometric ITEM-FOUR Analysis Reveals Coding Single-Nucleotide Polymorphisms in Human Cardiac Troponin T That Evade Detection by Sandwich ELISAs Which Use Monoclonal Antibodies M7 and M11.7 from the Elecsys Troponin T® Assay” (International Journal of Molecular Sciences, 2025)
